# Tested on: coronary arteries
# Experiment: Swine stent model: coated stents implanted in coronary arteries, light microscopy and morphometry
# Settings: for Stenosis (%): (Neointimal Area/IEL Area)x100; for EEL Area / IEL Area / Intimal Area / Intimal Thick. / Lumen Area: PolySAID II coating alone or with 20% added drug by weight
# Text: A total of 8 stents were implanted in the coronary arteries of 3 miniswine for 28 days. The stent implants were Polymerix [nicknamed MARGI] 15 mm in length with an unexpanded diameter of 1.6 mm.
# All stents were processed for light microscopic evaluation. Before processing, the vessels and hearts were x-rayed to locate and assess stent placement. For processing, the stented vessel segments were dehydrated in a graded series of ethanol and embedded in methylmethacrylate plastic. After polymerization, two to three millimeter sections were sawed from the proximal, mid and distal portions of each stent. Sections from the stents were cut on a rotary microtome at four to five microns, mounted and stained with hematoxylin and eosin and elastic Van Gieson stains. All sections were examined by light microscopy for the presence of inflammation, thrombus, neointimal formation, vessel wall injury and potential localized toxic effects associated with drug-coated stents.
# Myocardial sections were taken from the anterior, lateral, posterior and septal walls of the left ventricle distal to the stent and from the apical region of the left ventricle. To determine localized affects of the polymer and/or drug, the myocardium was also sampled beneath the area of stent placement. All sections were cut at 4-6 microns; mounted and stained with hematoxylin and eosin and examined for the presence of infarct, thromboembolus and inflammation.
# A vessel injury score was calculated according to the Schwartz method. The cross-sectional areas (external elastic lamina [EEL], internal elastic lamina [IEL] and lumen) of each section were measured with digital morphometry. Neointimal thickness was measured as the distance from the inner surface of each stent strut to the luminal border. Percent area stenosis was calculated with the formula [(Neointimal Area/IEL Area)×100]. Ordinal data was also collected for fibrin deposition and inflammation and hemorrhage around the stent struts and percent endothelialization of the lumen surfaces. Values are expressed as mean±SD. Mean variables were compared between the groups with the use of ANOVA with Fishers Post Hoc Correction for analysis of the data. A value of P≦0.05 was considered statistically significant.
# [1] = miniswine coronary arteries, stents 28 days
Structure (SMILES),% Struts (Fibrin) [1] [%],% Struts Hemorrhage [1] [%],% Struts with underlying medial necrosis [1] [%],Ave Inflammation score [1],"light microscopy findings (vessel healing, neointima) [1]",Stenosis (%) [1] [%],EEL Area [1] [mm2],IEL Area [1] [mm2],Intimal Area [1],Intimal Thick. [1] [mm],Lumen Area [1] [mm2],"Injury Score (miniswine coronary arteries, stents 28 days, Schwartz method)","light microscopy findings (vessel healing, neointima) (in vivo)","% Struts (Fibrin) (miniswine, in vivo, 28 days) [%]","% Struts Hemorrhage (miniswine, in vivo, 28 days) [%]","% Struts with underlying medial necrosis (miniswine, in vivo, 28 days) [%]","Ave Inflammation score (miniswine, in vivo, 28 days)","Injury Score (miniswine, in vivo, 28 days)"
"CC(=O)O[C@H]1C(=O)[C@@]2(C)[C@H]([C@H](OC(=O)c3ccccc3)[C@]3(O)C[C@H](OC(=O)[C@H](O)[C@@H](NC(=O)c4ccccc4)c4ccccc4)C(C)=C1C3(C)C)[C@]1(OC(C)=O)CO[C@@H]1C[C@@H]2O [Paclitaxel, paclitaxel]",100,100,8.67 ± 3.51,2.0,"malapposition with underlying medial necrosis with extensive accumulation of fibrin, hemorrhage, and inflammatory cells around the stent struts",27.21 ± 17.11,8.41 ± 2.95,6.84 ± 2.56,2.14 ± 2.10 mm2,0.05 ± 0.01,4.70 ± 0.64,0.35 ± 0.48,,,,,,
"CO[C@H]1C[C@@H]2CC[C@@H](C)[C@@](O)(O2)C(=O)C(=O)N2CCCC[C@H]2C(=O)O[C@H]([C@H](C)C[C@@H]2CC[C@@H](O)[C@H](OC)C2)CC(=O)[C@H](C)/C=C(\C)[C@@H](O)[C@@H](OC)C(=O)[C@H](C)C[C@H](C)/C=C/C=C/C=C/1C [Sirolimus, sirolimus]",,,,,,20.31 ± 10.1,6.07 ± 0.61,4.78 ± 0.39,0.96 ± .50 mm2,0.10 ± 0.05,3.81 ± 0.62,,less neointimal growth and were more healed than those coated with paclitaxel,57.78 ± 43.47,28.33 ± 30.14,0.68 ± 0.68,2.3 ± 0.58,0.45 ± 0.69

# — US7985415B2, “Medical devices employing novel polymers” (Rutgers, The State University of New Jersey, priority 1997, dated 2011)
